Experimental findings from ChEMBL document CHEMBL3627649, “Identification of Substituted Naphthotriazolediones as Novel Tryptophan 2,3-Dioxygenase (TDO) Inhibitors through Structure-Based Virtual Screening” (J Med Chem, 2015) are described below.

One assay addresses T1, Catalase (Homo sapiens, UniProt P04040).
T1 sequence (P04040 whole entry): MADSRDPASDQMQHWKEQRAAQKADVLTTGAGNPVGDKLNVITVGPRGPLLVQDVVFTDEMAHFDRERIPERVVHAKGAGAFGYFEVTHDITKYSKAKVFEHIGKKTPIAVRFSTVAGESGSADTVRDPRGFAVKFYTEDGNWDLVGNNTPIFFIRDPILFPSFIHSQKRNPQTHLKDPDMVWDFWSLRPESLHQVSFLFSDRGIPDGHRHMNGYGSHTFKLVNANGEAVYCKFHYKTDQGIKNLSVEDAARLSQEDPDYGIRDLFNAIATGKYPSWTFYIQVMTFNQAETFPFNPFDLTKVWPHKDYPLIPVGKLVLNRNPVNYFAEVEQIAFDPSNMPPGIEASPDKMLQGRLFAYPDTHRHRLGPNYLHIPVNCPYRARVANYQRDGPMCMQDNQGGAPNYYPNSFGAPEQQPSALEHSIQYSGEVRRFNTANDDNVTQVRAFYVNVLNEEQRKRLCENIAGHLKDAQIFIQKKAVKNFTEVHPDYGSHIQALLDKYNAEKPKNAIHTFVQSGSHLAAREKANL
In words: Inhibition of catalase (unknown origin).

A further assay deals with T2, Aurora kinase A (Homo sapiens, UniProt O14965).
T2 sequence (O14965 whole entry): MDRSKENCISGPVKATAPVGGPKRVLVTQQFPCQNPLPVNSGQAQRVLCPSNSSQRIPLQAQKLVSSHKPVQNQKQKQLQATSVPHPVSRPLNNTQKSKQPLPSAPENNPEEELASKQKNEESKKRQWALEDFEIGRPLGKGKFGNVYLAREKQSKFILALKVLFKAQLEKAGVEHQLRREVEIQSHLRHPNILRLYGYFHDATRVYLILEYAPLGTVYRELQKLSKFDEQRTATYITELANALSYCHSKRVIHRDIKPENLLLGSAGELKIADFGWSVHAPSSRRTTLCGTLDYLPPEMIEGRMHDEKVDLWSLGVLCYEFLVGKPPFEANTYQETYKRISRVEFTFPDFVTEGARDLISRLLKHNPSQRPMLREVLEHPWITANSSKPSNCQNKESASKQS
Kind of assay: Inhibition of Aurora A (unknown origin).

Assay [1] addresses C-X-C chemokine receptor type 4 (Homo sapiens, UniProt P61073). Kind of assay: Displacement of 125I-SDF-1 from human CXCR4 expressed in HEK293 cells incubated for 1.5 hrs by Topcount analysis. The assay is classed as cell-based.
Assay [2] addresses T3, Receptor-type tyrosine-protein kinase FLT3 (Homo sapiens, UniProt P36888).
T3 sequence (P36888 whole entry): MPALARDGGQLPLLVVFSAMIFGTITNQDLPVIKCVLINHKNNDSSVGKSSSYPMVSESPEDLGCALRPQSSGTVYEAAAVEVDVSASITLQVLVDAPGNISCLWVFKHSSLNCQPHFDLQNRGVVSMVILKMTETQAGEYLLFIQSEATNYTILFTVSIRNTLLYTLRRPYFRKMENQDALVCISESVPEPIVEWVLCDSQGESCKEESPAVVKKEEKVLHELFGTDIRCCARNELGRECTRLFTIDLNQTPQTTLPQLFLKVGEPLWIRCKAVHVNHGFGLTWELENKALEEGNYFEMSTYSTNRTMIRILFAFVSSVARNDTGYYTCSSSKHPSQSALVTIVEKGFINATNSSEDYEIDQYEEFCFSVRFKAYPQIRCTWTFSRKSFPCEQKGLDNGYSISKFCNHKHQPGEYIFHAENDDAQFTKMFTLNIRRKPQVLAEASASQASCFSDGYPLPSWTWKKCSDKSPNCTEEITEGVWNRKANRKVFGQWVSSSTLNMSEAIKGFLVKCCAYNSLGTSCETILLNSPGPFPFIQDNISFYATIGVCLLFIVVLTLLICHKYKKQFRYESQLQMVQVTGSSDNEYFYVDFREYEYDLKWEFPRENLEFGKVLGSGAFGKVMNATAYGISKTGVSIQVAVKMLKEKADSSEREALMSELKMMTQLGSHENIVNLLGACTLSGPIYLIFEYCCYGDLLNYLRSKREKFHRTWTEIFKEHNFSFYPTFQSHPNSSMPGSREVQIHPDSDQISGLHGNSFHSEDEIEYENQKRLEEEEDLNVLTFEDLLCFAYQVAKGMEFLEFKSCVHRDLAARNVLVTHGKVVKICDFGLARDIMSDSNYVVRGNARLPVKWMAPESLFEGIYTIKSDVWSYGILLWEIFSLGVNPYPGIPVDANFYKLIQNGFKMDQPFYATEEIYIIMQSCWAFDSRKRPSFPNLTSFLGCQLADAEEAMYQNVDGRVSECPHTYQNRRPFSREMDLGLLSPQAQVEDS
In words: Inhibition of FLT3 (unknown origin) expressed in Sf9 insect cells for 4 hrs by Kinase-Glo assay. For orientation: In Kinase-Glo more light means more ATP remaining.

Assay [3] has as its target Epidermal growth factor receptor (Homo sapiens, UniProt P00533). Kind of assay: Inhibition of human EGFR incubated for 2 hrs by Kinase-Glo luminescent kinase assay.
Assay [4] has as its target Tryptophan 2,3-dioxygenase (Homo sapiens, UniProt P48775). Kind of assay: Inhibition of recombinant human TDO expressed in Escherichia coli incubated for 1 hr measured by absorbance assay.
The nature of assay [5]: Inhibition of Dengue virus type 2 NS2B-NS3 protease.
In another assay the target is Mu-type opioid receptor (Homo sapiens, UniProt P35372). Kind of assay: Inhibition of recombinant mu-opioid receptor (unknown origin) expressed in CHO cells for 60 mins. In kind it is cell-based.
Sequence of Mu-type opioid receptor (P35372 whole entry): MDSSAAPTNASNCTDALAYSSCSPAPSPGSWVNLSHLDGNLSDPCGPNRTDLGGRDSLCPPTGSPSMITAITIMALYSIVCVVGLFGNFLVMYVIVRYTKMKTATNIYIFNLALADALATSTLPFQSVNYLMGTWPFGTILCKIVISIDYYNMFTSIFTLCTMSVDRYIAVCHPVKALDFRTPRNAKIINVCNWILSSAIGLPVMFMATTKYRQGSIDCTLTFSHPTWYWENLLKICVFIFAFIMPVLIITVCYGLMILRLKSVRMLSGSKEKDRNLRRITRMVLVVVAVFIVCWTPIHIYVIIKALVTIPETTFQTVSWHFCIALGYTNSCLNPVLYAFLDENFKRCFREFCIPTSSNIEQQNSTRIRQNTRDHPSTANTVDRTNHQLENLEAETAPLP
In assay [6] the target is Indoleamine 2,3-dioxygenase 1 (Homo sapiens, UniProt P14902). Kind of assay: Inhibition of recombinant human IDO expressed in Escherichia coli incubated for 1 hr measured by fluorescence assay.
Sequence of Indoleamine 2,3-dioxygenase 1 (P14902 whole entry): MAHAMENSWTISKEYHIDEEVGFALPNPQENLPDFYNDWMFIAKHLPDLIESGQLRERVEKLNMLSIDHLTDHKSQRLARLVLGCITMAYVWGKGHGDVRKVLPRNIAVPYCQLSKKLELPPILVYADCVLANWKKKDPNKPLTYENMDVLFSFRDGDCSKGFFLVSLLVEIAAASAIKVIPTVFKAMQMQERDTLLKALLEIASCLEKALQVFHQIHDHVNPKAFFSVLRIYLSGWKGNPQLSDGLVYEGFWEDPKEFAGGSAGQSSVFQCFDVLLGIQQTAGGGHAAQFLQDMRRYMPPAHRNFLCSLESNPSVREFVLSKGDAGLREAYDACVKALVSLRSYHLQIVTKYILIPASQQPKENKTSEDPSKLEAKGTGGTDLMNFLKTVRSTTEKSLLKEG
Assay [7] in a line: Inhibition of human muscle mitochondrial complex 1 by spectrophotometric assay.
The target in assay [8] is T4, Tyrosine-protein phosphatase non-receptor type 1 (Homo sapiens, UniProt P18031).
T4 sequence (P18031 whole entry): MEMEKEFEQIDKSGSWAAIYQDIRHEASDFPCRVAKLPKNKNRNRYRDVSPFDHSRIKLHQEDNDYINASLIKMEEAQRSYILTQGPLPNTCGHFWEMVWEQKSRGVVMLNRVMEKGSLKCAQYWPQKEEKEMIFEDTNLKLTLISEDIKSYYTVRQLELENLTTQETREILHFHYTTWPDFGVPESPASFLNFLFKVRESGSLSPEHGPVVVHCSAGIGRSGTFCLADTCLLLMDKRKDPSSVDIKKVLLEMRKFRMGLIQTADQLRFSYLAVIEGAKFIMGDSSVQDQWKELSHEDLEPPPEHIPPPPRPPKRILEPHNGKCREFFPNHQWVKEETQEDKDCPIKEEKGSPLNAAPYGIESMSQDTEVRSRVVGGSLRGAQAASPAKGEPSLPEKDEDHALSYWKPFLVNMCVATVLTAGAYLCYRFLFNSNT
In words: Inhibition of human PTP1B preincubated with protein for 15 mins followed by DiFMUP addition for 1 hr measured by fluorescence analysis.

A short description of assay [9]: Redox cycling activity of the compound assessed as H2O2 production incubated for 15 mins by HRP-PR assay in presence of 0.8 mM DTT.

What is called IC50 is the midpoint of a concentration-inhibition curve. Broadly, the AC50 is the midpoint of the concentration-response curve, whichever way the signal moves.

The structures appear in SMILES notation. Some results are limits rather than exact numbers.

Sequence of Tryptophan 2,3-dioxygenase (P48775 whole entry): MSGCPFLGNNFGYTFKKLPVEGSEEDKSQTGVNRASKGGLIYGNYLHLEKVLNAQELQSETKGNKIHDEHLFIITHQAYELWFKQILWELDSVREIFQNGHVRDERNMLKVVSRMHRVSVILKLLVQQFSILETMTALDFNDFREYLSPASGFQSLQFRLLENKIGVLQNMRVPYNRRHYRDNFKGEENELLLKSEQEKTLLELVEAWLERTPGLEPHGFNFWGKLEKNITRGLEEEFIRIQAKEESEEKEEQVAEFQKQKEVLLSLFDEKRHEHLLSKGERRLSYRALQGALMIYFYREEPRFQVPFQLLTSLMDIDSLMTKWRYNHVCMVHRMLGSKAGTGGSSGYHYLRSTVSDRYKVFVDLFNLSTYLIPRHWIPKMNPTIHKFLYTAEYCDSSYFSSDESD
Sequence of Epidermal growth factor receptor (P00533 whole entry): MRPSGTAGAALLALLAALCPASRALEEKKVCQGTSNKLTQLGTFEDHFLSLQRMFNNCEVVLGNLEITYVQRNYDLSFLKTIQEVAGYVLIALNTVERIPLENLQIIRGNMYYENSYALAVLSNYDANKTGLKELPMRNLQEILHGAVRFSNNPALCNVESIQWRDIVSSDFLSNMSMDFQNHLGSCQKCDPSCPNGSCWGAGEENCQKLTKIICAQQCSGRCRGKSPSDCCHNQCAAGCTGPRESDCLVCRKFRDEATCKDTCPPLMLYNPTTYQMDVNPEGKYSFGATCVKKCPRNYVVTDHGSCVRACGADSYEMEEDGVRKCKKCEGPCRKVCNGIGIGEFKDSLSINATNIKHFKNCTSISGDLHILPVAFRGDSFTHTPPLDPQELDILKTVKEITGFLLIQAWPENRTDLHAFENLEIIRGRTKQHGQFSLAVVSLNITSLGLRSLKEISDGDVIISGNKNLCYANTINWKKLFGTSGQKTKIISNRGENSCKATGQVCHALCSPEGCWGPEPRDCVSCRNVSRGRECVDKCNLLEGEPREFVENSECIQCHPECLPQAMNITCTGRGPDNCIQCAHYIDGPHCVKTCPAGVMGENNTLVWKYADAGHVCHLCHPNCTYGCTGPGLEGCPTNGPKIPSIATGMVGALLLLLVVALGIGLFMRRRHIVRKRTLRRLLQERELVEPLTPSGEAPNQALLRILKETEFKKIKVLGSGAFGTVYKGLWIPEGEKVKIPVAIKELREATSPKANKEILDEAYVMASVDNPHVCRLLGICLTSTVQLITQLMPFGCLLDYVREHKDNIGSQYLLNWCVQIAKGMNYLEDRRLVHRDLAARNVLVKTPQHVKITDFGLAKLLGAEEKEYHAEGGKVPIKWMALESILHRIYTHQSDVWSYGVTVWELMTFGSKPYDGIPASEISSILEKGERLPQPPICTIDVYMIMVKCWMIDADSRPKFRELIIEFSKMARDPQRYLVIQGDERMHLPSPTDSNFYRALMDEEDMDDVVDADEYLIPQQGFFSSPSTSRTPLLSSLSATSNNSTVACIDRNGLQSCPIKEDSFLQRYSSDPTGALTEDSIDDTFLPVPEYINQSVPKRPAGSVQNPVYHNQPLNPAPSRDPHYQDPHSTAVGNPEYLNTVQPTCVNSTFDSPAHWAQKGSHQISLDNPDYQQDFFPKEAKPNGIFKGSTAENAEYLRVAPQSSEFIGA
Sequence of C-X-C chemokine receptor type 4 (P61073 whole entry): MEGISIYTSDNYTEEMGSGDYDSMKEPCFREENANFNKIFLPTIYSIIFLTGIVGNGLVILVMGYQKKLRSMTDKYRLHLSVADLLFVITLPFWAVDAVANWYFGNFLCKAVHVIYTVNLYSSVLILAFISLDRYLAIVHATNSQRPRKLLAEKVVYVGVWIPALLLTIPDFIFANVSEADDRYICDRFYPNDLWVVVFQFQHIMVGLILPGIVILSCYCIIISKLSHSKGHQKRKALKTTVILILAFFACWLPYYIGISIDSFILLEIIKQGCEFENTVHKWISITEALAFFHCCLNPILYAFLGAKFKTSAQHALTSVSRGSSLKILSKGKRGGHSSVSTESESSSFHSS

As to `Cc1ccccc1Cn1nnc2c1C(=O)c1ccccc1C2=O`, the IC50 on Catalase is > 10 µM; against Aurora kinase A it was > 10 µM; in assay [1], > 10 µM; in assay [2], > 10 µM; in assay [3], > 10 µM; in assay [4] it was 0.561 µM. Moreover, the IC50 in assay [5] was > 10 µM; at Mu-type opioid receptor, > 10 µM; in [6] it was 0.809 µM; in assay [7] it was > 10 µM.

`Cc1cccc(Cn2nnc3c2C(=O)c2ccccc2C3=O)c1`: the half-maximal inhibitory concentration (IC50) in [4] is 1.75 µM; in assay [6] it was 4.61 µM.

Consider `O=C1c2ccccc2C(=O)c2c1nnn2Cc1cccc(Cl)c1`, for which the half-inhibitory concentration (IC50) in [8] was > 10 µM; in [4], 0.711 µM; in assay [6] it was 0.767 µM. Further, the AC50 in assay [9] was > 50 µM.

With `O=C1c2ccccc2C(=O)c2c1nnn2Cc1ccc(F)cc1`, the IC50 came to 7.38 µM in assay [4] and 2.59 µM in [6].

For the compound `Cc1ccc(Cn2nnc3c2C(=O)c2ccccc2C3=O)cc1`, the IC50 turned out to be 1.09 µM in [4] and 1.77 µM in assay [6].

In the case of `O=C1c2ccccc2C(=O)c2c1nnn2Cc1cccc(Br)c1`, the values for the IC50 in assay [4] and in assay [6] were 0.768 µM and 3.16 µM, respectively.

As to `O=C1c2ccccc2C(=O)c2c1nnn2Cc1ccc(Br)cc1`, the IC50 in [4] was 1.59 µM; in assay [6] it was > 10 µM.

Take `O=C1c2ccccc2C(=O)c2c1nnn2Cc1ccc(Cl)cc1`: the IC50 in assay [4] was 6.46 µM; in assay [6] it was > 10 µM.

Regarding `O=C(O)c1cccc(Cn2nnc3c2C(=O)c2ccccc2C3=O)c1`, the values for the IC50 in [4] and in [6] were 0.167 µM and 1.24 µM, respectively.

As for `O=C(O)c1ccc(Cn2nnc3c2C(=O)c2ccccc2C3=O)cc1`, the IC50 worked out at 0.312 µM in assay [4] and 2.32 µM in assay [6].

In the case of `CCN(CC)C(=O)c1cccc(Cn2nnc3c2C(=O)c2ccccc2C3=O)c1`, the values for the IC50 in assay [4] and in [6] were 0.09 µM and 0.977 µM, respectively.

Take `CCN(CC)C(=O)c1ccc(Cn2nnc3c2C(=O)c2ccccc2C3=O)cc1`: the IC50 in assay [4] was 0.181 µM; in [6], 1.93 µM.

Take `CC(=O)N1CCN(C(=O)c2cccc(Cn3nnc4c3C(=O)c3ccccc3C4=O)c2)CC1`: the IC50 in assay [4] was determined as 0.059 µM; in assay [6], 0.602 µM.

For the compound `O=C1c2ccccc2C(=O)c2c1nnn2Cc1cccc(C(=O)N2CCOCC2)c1`, the figures for the IC50 in [4] and in [6] were 0.048 µM and 0.936 µM, respectively.

As for `CN1CCN(C(=O)c2cccc(Cn3nnc4c3C(=O)c3ccccc3C4=O)c2)CC1`, the IC50 (in assay [8]; against Catalase; against Aurora kinase A; in assay [1]; in assay [2]; in assay [3]) was > 10 µM each time. Besides, the IC50 is > 10 µM in assay [5], > 10 µM at Mu-type opioid receptor, 0.64 µM in [6] and > 10 µM in assay [7]. Besides, the AC50 in assay [9] is > 50 µM.

`CC(=O)N1CCN(C(=O)c2ccc(Cn3nnc4c3C(=O)c3ccccc3C4=O)cc2)CC1`: the IC50 was 0.176 µM in assay [4] and 1.1 µM in [6].

For `O=C1c2ccccc2C(=O)c2c1nnn2Cc1ccc(C(=O)N2CCOCC2)cc1`, the concentration for half-maximal inhibition (IC50) in [4] is 0.116 µM; in assay [6] it was 0.982 µM.

On to `CN1CCN(C(=O)c2ccc(Cn3nnc4c3C(=O)c3ccccc3C4=O)cc2)CC1`, for which the IC50 in assay [4] was determined as 0.108 µM; in [6], 2.07 µM.

Take `COC1CCN(C(=O)c2ccc(Cn3nnc4c3C(=O)c3ccccc3C4=O)cc2)CC1`: the 50% inhibitory concentration (IC50) in assay [4] came out at 0.209 µM; in assay [6] it was 1.59 µM.

As for `CCN(CC)C(=O)Cc1ccc(Cn2nnc3c2C(=O)c2ccccc2C3=O)cc1`, the half-inhibitory concentration (IC50) in assay [4] came out at 0.145 µM; in assay [6] it was 0.922 µM.
